In US5506340A, “Tumor necrosis factor inhibitors” (Centecor, Inc., priority 1994, dated 1996):
No end group written: not given here.

Biological target: T1, human TNFα (Homo sapiens, UniProt P01375)
T1 construct: purchased Biosource, Camarillo, Calif
Assay: p55 receptor/IgG fusion protein binding assay (inhibition of TNFα capture by p55-Ig coated plate)
Details: TNFα 25 ng/ml preincubated with peptide, read-out: IC50 (concentration necessary to inhibit TNFα by 50%), inhibition of binding of TNFα to p55TNFr-IgG chimeric construct
Protocol: This assay was designed to identify peptides which bind to human TNFα and thereby prevent the capture of the TNFα by a microtiter plate coated with p55-Ig fusion protein. A constant concentration of human TNFα is preincubated with the test peptide and then incubated on the p55-Ig coated microtiter wells. Bound TNFα is detected using a specific antisera and an alkaline phosphatase-conjugated probe.
A 96-well, U-bottom polyvinylchloride microtiter plate was coated with 50 μl/well of p55-Ig fusion protein at 5 μg/ml in 0.01M sodium phosphate, 0.15M sodium chloride (PBS) by incubation overnight at 4° C. or 2 hours at 37° C. […] 29, 1993 which is incorporated herein by reference. The plate was washed three times with 0.05% Tween-20 in PBS, then blocked, by adding 150 μl/well of assay buffer (10 mM N-2-hydroxyethylpiperazine-N'-[…] (HEPES) pH 7.2, containing 0.1% porcine gelatin, 0.1% Tween-80, and 0.01% sodium azide) and continuing incubation for 1 hour at 37° C. or at 4° C. for 1-7 days.
Lyophilized peptides to be tested were weighed in tared 12×75 mm polystyrene tubes and reconstituted to a concentration of 1.2 mM with assay buffer. Each suspension was sonicated in a water bath for 1-5 minutes and vortexed 15-30 seconds to disperse large particles. Serial dilutions of each peptide suspension were prepared using assay buffer in a 96-well polystyrene microtiter plate. Additional wells received Fab fragment of the mouse/human monoclonal anti-human TNFα antibody cA2 (positive control) or assay buffer (negative control). […] The polystyrene dilution plate was then sealed and incubated 1 hour at room temperature on an orbital mixer set at moderate speed.
Following the sample preincubation, blocker was discarded from the p55-Ig coated plate and blotted dry. Aliquots (50 μl) of each peptide or control were transferred into duplicate wells on the p55-Ig coated plate which was then sealed and incubated 1 hour at 37° C. Duplicate wells containing only assay buffer were included as a plate blank. After incubation the p55-Ig plate was washed three times with 0.05% Tween-20 in PBS.
All incubations were for 1 hour at 37° C. and after each incubation the plate was washed three times with 0.05% Tween-20 in PBS. Fifty microliters of alkaline phosphatase substrate solution (alkaline buffer (Sigma, St. Louis, Mo.) diluted 1:500 in deionized water plus one 5 mg tablet of p-nitrophenyl phosphate (Sigma, St. Louis, Mo.) per 5 ml of diluted buffer) was added to all wells and incubation continued for 20 minutes at room temperature. Color development was stopped by adding to all wells 50 μl of 3N sodium hydroxide. The optical density (OD) at 405 nm was measured on a microtiter plate reader (Molecular Devices Vmax plate reader), with the plate blank wells subtracted as background. The activity of each peptide was then expressed as the percent inhibition of TNFα capture by the p55-Ig plate, relative to the amount of TNFα captured in wells containing only assay buffer (negative control), as follows:
The inhibition of binding of TNFα to p55TNFr-IgG chimeric construct was performed as described above using several embodiments of the invention. The peptides were tested to determine the concentration necessary to inhibit TNFα by 50% (IC50) relative to TNFα activity in the absence of the peptide.

T1 sequence (P01375 77-233 limits assumed): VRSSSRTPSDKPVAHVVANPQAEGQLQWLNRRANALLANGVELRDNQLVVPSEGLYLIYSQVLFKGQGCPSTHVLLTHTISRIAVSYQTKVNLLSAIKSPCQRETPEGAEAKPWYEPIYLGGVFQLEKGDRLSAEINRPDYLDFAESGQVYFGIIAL

Row | IC50 [µM] | Substance
1 | 850 | MVYPGLQEPWLHSMY-NH2
2 | 600 | PGLQEPWLHSMYHGA-NH2
3 | 310 | QEPWLHSMYHGAAFQ-NH2
4 | 480 | WLHSMYHGAAFQLTQ-NH2
5 | 370 | YLAHEVQLFSSQYPF-NH2
